Measurements taken from ChEMBL document CHEMBL1255419, “Pharmacokinetic-pharmacodynamic assessment of faropenem in a lethal murine Bacillus anthracis inhalation postexposure prophylaxis model” (Antimicrob Agents Chemother, 2010).
Converted amounts (≈) assume the structure as drawn. The source made the active and inactive calls. No cut-off for these calls is given here.

How the values were obtained:
[1] = tested on: Bacillus anthracis; assay: microbe, parasite or virus in culture; assay type: functional
[2] = tested on: Bacillus anthracis; assay: Antibacterial activity against Bacillus anthracis Ames infected in BALB/c mouse assessed as survival rate at 10 mg/kg, ip administered 24 hrs postinfection at 12 hrs interval for 14 days measured on day 27; assay type: functional; settings: route intraperitoneal
[3] = tested on: Bacillus anthracis; assay: Antibacterial activity against Bacillus anthracis Ames infected in BALB/c mouse assessed as survival rate at 80 mg/kg, ip administered 24 hrs postinfection at 12 hrs interval for 14 days measured on day 27; assay type: functional; settings: route intraperitoneal
[4] = tested on: Bacillus anthracis; assay: microbe, parasite or virus in culture; assay type: functional; remark: listed apart in the source
[5] = tested on: Bacillus anthracis; assay: microbe, parasite or virus in culture; assay type: functional; remark: listed apart in the source
[6] = tested on: Bacillus anthracis; assay: microbe, parasite or virus in culture; assay type: functional; remark: listed apart in the source
[7] = tested on: Bacillus anthracis; assay: microbe, parasite or virus in culture; assay type: functional; remark: listed apart in the source
[8] = tested on: Bacillus anthracis; assay: microbe, parasite or virus in culture; assay type: functional; remark: listed apart in the source
[9] = organism: Homo sapiens; assay: Plasma protein binding in human at 1000 ug/ml by ultrafiltration technique; settings: read-out: PPB (converted)
[10] = tested on: Bacillus anthracis; assay: microbe, parasite or virus in culture; assay type: functional; remark: listed apart in the source
[11] = tested on: Streptococcus pneumoniae; assay: Antibacterial activity against Streptococcus pneumoniae clinical isolates; assay type: functional
[12] = f%TMIC in ip dosed Bacillus anthracis Ames infected BALB/c mouse model at ED50 administered 24 hrs postinfection at 4 hrs interval for 14 days measured on day 27; assay type: functional
[13] = tested on: Bacillus anthracis; assay: microbe, parasite or virus in culture; assay type: functional; remark: listed apart in the source
[14] = tested on: Bacillus anthracis; assay: microbe, parasite or virus in culture; assay type: functional; remark: listed apart in the source
[15] = tested on: Bacillus anthracis; assay: microbe, parasite or virus in culture; assay type: functional; remark: listed apart in the source
[16] = Plasma protein binding in CD1 mouse at 1000 ug/ml by ultrafiltration technique; assay type: ADME, cell-free; settings: read-out: PPB (converted)
[17] = tested on: Bacillus anthracis; assay: microbe, parasite or virus in culture; assay type: functional; remark: listed apart in the source
[18] = Plasma protein binding in CD1 mouse at 5 ug/ml by ultrafiltration technique; assay type: ADME, cell-free; settings: read-out: PPB (converted)
[19] = tested on: Bacillus anthracis; assay: microbe, parasite or virus in culture; assay type: functional; remark: listed apart in the source
[20] = tested on: Bacillus anthracis; assay: Antibacterial activity against Bacillus anthracis Ames infected in BALB/c mouse assessed as decrease in bacterial load in lungs at 20 mg/kg, ip administered 24 hrs postinfection at 4 hrs interval for 14 days measured on day 27; assay type: functional, organism-based; parameters: dose 20 mg/kg
[21] = tested on: Bacillus anthracis; assay: microbe, parasite or virus in culture; assay type: functional; remark: listed apart in the source
[22] = tested on: Bacillus anthracis; assay: Antibacterial activity against Bacillus anthracis Ames infected in BALB/c mouse assessed as survival rate at 20 mg/kg, ip administered 24 hrs postinfection at 6 hrs interval for 14 days measured on day 27; assay type: functional; settings: route intraperitoneal
[23] = tested on: Bacillus anthracis; assay: microbe, parasite or virus in culture; assay type: functional; remark: listed apart in the source
[24] = tested on: Bacillus anthracis; assay: Antibacterial activity against Bacillus anthracis Ames infected in BALB/c mouse assessed as survival rate at 10 mg/kg, ip administered 24 hrs postinfection at 4 hrs interval for 14 days measured on day 27; assay type: functional; settings: route intraperitoneal
[25] = f%TMIC in Bacillus anthracis Ames infected human model at 600 […], BID; assay type: functional
[26] = tested on: Bacillus anthracis; assay: Antibacterial activity against Bacillus anthracis Ames infected in BALB/c mouse assessed as survival rate at 80 mg/kg, ip administered 24 hrs postinfection at 4 hrs interval for 14 days measured on day 27; assay type: functional; settings: route intraperitoneal
[27] = tested on: Bacillus anthracis; assay: microbe, parasite or virus in culture; assay type: functional; remark: listed apart in the source
[28] = f%TMIC in ip dosed Bacillus anthracis Ames infected BALB/c mouse model at ED90 administered 24 hrs postinfection at 4 hrs interval for 14 days measured on day 27; assay type: functional
[29] = tested on: Bacillus anthracis; assay: microbe, parasite or virus in culture; assay type: functional; remark: listed apart in the source
[30] = tested on: Bacillus anthracis; assay: microbe, parasite or virus in culture; assay type: functional; remark: listed apart in the source
[31] = tested on: Bacillus anthracis; assay: microbe, parasite or virus in culture; assay type: functional; remark: listed apart in the source
[32] = tested on: Bacillus anthracis; assay: microbe, parasite or virus in culture; assay type: functional; remark: listed apart in the source
[33] = tested on: Bacillus anthracis; assay: microbe, parasite or virus in culture; assay type: functional; remark: listed apart in the source
[34] = tested on: Bacillus anthracis; assay: microbe, parasite or virus in culture; assay type: functional; remark: listed apart in the source
[35] = tested on: Bacillus anthracis; assay: microbe, parasite or virus in culture; assay type: functional; remark: listed apart in the source
[36] = tested on: Bacillus anthracis; assay: Antibacterial activity against Bacillus anthracis Ames infected in BALB/c mouse assessed as survival rate at 40 mg/kg, ip administered 24 hrs postinfection at 12 hrs interval for 14 days measured on day 27; assay type: functional; settings: route intraperitoneal
[37] = tested on: Streptococcus pneumoniae; assay: f%TMIC in Streptococcus pneumoniae infected pharmacokinetic-pharmacodynamic model; assay type: functional
[38] = tested on: Bacillus anthracis; assay: microbe, parasite or virus in culture; assay type: functional; remark: listed apart in the source
[39] = tested on: Bacillus anthracis; assay: Antibacterial activity against Bacillus anthracis Ames infected in BALB/c mouse assessed as survival rate at 40 mg/kg, ip administered 24 hrs postinfection at 6 hrs interval for 14 days measured on day 27; assay type: functional; settings: route intraperitoneal
[40] = tested on: Bacillus anthracis; assay: Antibacterial activity against Bacillus anthracis Ames infected in BALB/c mouse assessed as survival rate at 10 mg/kg, ip administered 24 hrs postinfection at 6 hrs interval for 14 days measured on day 27; assay type: functional; settings: route intraperitoneal
[41] = tested on: Bacillus anthracis; assay: Antibacterial activity against Bacillus anthracis Ames infected in BALB/c mouse assessed as survival rate at 20 mg/kg, ip administered 24 hrs postinfection at 12 hrs interval for 14 days measured on day 27; assay type: functional; settings: route intraperitoneal
[42] = tested on: Bacillus anthracis; assay: f%TMIC in Bacillus anthracis Ames infected pharmacokinetic-pharmacodynamic model at 0.25 ug/ml; assay type: functional
[43] = tested on: Bacillus anthracis; assay: microbe, parasite or virus in culture; assay type: functional; remark: listed apart in the source
[44] = tested on: Bacillus anthracis; assay: f%TMIC in Bacillus anthracis Ames infected pharmacokinetic-pharmacodynamic model at 0.5 ug/ml; assay type: functional
[45] = tested on: Bacillus anthracis; assay: microbe, parasite or virus in culture; assay type: functional; remark: listed apart in the source
[46] = tested on: Bacillus anthracis; assay: Antibacterial activity against Bacillus anthracis Ames infected in BALB/c mouse assessed as survival rate at 40 mg/kg, ip administered 24 hrs postinfection at 4 hrs interval for 14 days measured on day 27; assay type: functional; settings: route intraperitoneal
[47] = tested on: Bacillus anthracis; assay: Antibacterial activity against Bacillus anthracis Ames infected in BALB/c mouse assessed as survival rate at 20 mg/kg, ip administered 24 hrs postinfection at 4 hrs interval for 14 days measured on day 27; assay type: functional; settings: route intraperitoneal
[48] = tested on: Bacillus anthracis; assay: microbe, parasite or virus in culture; assay type: functional; remark: listed apart in the source
[49] = organism: Homo sapiens; assay: Plasma protein binding in human at 5 ug/ml by ultrafiltration technique; settings: read-out: PPB (converted)
[50] = tested on: Bacillus anthracis; assay: microbe, parasite or virus in culture; assay type: functional; remark: listed apart in the source
[51] = tested on: Bacillus anthracis; assay: Antibacterial activity against Bacillus anthracis Ames infected in BALB/c mouse assessed as survival rate at 80 mg/kg, ip administered 24 hrs postinfection at 6 hrs interval for 14 days measured on day 27; assay type: functional; settings: route intraperitoneal
[52] = tested on: Bacillus anthracis; assay: f%TMIC in Bacillus anthracis Ames infected pharmacokinetic-pharmacodynamic model at 0.12 ug/ml; assay type: functional
[53] = f%TMIC in ip dosed Bacillus anthracis Ames infected BALB/c mouse model at ED99 administered 24 hrs postinfection at 4 hrs interval for 14 days measured on day 27; assay type: functional
[54] = tested on: Bacillus anthracis; assay: Antibacterial activity against beta-lactamase Bla1 and Bla2-producing Bacillus anthracis Sterne by broth microdilution method; assay type: functional
[55] = tested on: Bacillus anthracis; assay: microbe, parasite or virus in culture; assay type: functional; remark: listed apart in the source

## Cc1oc(=O)oc1COC(=O)C1=C([C@H]2CCCO2)S[C@@H]2[C@@H]([C@@H](C)O)C(=O)N12 [FAROPENEM MEDOXOMIL]
[1]
  MIC: ≤ 0.06 µg/mL
[2]
  survival at 10 mg/kg: 0%
[3]
  survival at 80 mg/kg: 22.2%
[4]
  MIC: ≤ 0.06 µg/mL
[5]
  MIC: 0.25 µg/mL (≈ 0.629 µM)
[6]
  MIC: ≤ 0.06 µg/mL
[7]
  MIC: 0.12 µg/mL (≈ 0.302 µM)
[8]
  MIC: 0.12 µg/mL (≈ 0.302 µM)
[9]
  fraction unbound at 1000 ug/ml: 0.787
[10]
  MIC: > 64 µg/mL
[11]
  MIC: 0.008 µg/mL (≈ 0.0201 µM)
[12]
  fT>MIC: 10.6%
[13]
  MIC: 0.12 µg/mL (≈ 0.302 µM)
[14]
  MIC: 0.12 µg/mL (≈ 0.302 µM)
[15]
  MIC: 0.25 µg/mL (≈ 0.629 µM)
[16]
  fraction unbound at 1000 ug/ml: 0.82
[17]
  MIC: 0.12 µg/mL (≈ 0.302 µM)
[18]
  fraction unbound at 5 ug/ml: 0.15
[19]
  MIC: 0.25 µg/mL (≈ 0.629 µM)
[20]
  inhibition: Active
[21]
  MIC: 0.12 µg/mL (≈ 0.302 µM)
[22]
  survival at 20 mg/kg: 60%
[23]
  MIC: ≤ 0.06 µg/mL
[24]
  survival at 10 mg/kg: 77.8%
[25]
  fT>MIC: 62%
[26]
  survival at 80 mg/kg: 100%
[27]
  MIC: 1 µg/mL (≈ 2.52 µM)
[28]
  fT>MIC: 13.4%
[29]
  MIC: 0.5 µg/mL (≈ 1.26 µM)
[30]
  MIC: 0.25 µg/mL (≈ 0.629 µM)
[31]
  MIC: 0.12 µg/mL (≈ 0.302 µM)
[32]
  MIC: 0.12 µg/mL (≈ 0.302 µM)
[33]
  MIC: 0.12 µg/mL (≈ 0.302 µM)
[34]
  MIC: ≤ 0.06 µg/mL
[35]
  MIC: 0.12 µg/mL (≈ 0.302 µM)
[36]
  survival at 40 mg/kg: 20%
[37]
  fT>MIC: 13.9%
[38]
  MIC: 0.12 µg/mL (≈ 0.302 µM)
[39]
  survival at 40 mg/kg: 90%
[40]
  survival at 10 mg/kg: 30%
[41]
  survival at 20 mg/kg: 10%
[42]
  fT>MIC: 44%
[43]
  MIC: ≤ 0.06 µg/mL
[44]
  fT>MIC: 32%
[45]
  MIC: 0.12 µg/mL (≈ 0.302 µM)
[46]
  survival at 40 mg/kg: 80%
[47]
  survival at 20 mg/kg: 80%
[48]
  MIC: ≤ 0.06 µg/mL
[49]
  fraction unbound at 5 ug/ml: 0.1
[50]
  MIC: 0.06 µg/mL (≈ 0.151 µM)
[51]
  survival at 80 mg/kg: 90%
[52]
  fT>MIC: 51%
[53]
  fT>MIC: 16.4%
[54]
  MIC: ≤ 0.06 µg/mL
[55]
  MIC: ≤ 0.06 µg/mL
